Literature values as cited in patent publication US20140234375A1, “Compositions and Methods for Eliciting an Immune Response to Escape Mutants of Targeted Therapies” (priority 2005, published 2014).

Key:
HIV-1 variants = settings: by 8 weeks of therapy
HCV NS3 serine protease = HCV NS3 serine protease (Hepatitis C virus genotype 1b, UniProt Q9WMX2); settings: in vitro, major resistance mutation
HIV gp41 = settings: valine to alanine at amino acid 38 (V38A)

For Cc1ccnc2c1NC(=O)c1cccnc1N2C1CC1 [Nevirapine, nevirapine], the “decrease in susceptibility of patient isolates” value (HIV-1 variants) is given as “greater than 100 fold”.
For CCC[C@H](NC(=O)[C@@H]1[C@H]2CCC[C@H]2CN1C(=O)[C@@H](NC(=O)[C@@H](NC(=O)c1cnccn1)C1CCCCC1)C(C)(C)C)C(=O)C(=O)NC1CC1 [VX-950], the “frequency of Ser substitution (A156S) at amino acid 156” value (HCV NS3 serine protease; share of samples) is given as 79%.
In the case of enfuvirtide, the resistance to enfuvirtide (HIV gp41) is listed as 45 fold.
For COc1ccc2c(O[C@@H]3C[C@H]4C(=O)N[C@]5(C(=O)O)C[C@H]5/C=C\CCCCC[C@H](NC(=O)OC5CCCC5)C(=O)N4C3)cc(-c3csc(NC(C)C)n3)nc2c1 [BILN 2061], the “frequency of Ala substitution (D168A) at amino acid 168” value (HCV NS3 serine protease) is listed as 24% and the “frequency of Val substitution (D168V) at amino acid 168” value (HCV NS3 serine protease) is listed as 64%.
